Read-outs that look alike come from different tables or passages of the source.

Holding throughout (experiment): Kinase panel profiling at 1 µmol/L (MSA or IMAP), percentage inhibition
Type in all cases: biochemical

Assay [1] has as its target T1, panel of 255 wild-type kinases (Homo sapiens, UniProt O94806).
T1 sequence (O94806 1-890): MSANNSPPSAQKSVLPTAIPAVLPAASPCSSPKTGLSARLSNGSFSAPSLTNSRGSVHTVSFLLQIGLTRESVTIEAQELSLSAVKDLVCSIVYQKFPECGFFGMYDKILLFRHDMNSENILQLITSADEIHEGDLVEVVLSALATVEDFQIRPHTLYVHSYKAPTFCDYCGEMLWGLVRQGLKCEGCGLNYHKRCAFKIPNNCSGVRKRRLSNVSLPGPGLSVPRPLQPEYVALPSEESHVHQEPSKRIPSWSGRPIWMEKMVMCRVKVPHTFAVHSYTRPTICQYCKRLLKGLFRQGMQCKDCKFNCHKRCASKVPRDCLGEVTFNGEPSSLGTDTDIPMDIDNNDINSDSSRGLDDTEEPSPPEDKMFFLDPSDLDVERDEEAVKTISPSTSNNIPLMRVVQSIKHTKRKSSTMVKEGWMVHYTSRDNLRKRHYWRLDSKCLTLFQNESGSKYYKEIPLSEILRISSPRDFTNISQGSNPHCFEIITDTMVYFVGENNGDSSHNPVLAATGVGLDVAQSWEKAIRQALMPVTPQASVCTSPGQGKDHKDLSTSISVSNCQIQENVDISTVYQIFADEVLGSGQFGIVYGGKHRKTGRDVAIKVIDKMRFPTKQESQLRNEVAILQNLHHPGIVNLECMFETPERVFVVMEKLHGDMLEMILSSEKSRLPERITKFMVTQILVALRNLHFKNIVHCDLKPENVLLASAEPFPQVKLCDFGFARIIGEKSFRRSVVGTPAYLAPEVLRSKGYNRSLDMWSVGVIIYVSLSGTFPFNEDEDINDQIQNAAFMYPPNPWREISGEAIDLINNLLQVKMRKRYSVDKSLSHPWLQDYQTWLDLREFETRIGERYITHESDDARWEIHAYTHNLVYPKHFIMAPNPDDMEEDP
The following applies: kinase PKD3; 1 µmol/L single concentration; read-out: %-inhibition at 1 µmol/L, PKD3.

The target in assay [2] is panel of 255 wild-type kinases (Homo sapiens, UniProt P50613). The following applies: read-out: %-inhibition CDK7/CycH/MAT1.
In assay [3] the target is T2, panel of 255 wild-type kinases (Homo sapiens, UniProt P54753).
T2 sequence (P54753 34-998): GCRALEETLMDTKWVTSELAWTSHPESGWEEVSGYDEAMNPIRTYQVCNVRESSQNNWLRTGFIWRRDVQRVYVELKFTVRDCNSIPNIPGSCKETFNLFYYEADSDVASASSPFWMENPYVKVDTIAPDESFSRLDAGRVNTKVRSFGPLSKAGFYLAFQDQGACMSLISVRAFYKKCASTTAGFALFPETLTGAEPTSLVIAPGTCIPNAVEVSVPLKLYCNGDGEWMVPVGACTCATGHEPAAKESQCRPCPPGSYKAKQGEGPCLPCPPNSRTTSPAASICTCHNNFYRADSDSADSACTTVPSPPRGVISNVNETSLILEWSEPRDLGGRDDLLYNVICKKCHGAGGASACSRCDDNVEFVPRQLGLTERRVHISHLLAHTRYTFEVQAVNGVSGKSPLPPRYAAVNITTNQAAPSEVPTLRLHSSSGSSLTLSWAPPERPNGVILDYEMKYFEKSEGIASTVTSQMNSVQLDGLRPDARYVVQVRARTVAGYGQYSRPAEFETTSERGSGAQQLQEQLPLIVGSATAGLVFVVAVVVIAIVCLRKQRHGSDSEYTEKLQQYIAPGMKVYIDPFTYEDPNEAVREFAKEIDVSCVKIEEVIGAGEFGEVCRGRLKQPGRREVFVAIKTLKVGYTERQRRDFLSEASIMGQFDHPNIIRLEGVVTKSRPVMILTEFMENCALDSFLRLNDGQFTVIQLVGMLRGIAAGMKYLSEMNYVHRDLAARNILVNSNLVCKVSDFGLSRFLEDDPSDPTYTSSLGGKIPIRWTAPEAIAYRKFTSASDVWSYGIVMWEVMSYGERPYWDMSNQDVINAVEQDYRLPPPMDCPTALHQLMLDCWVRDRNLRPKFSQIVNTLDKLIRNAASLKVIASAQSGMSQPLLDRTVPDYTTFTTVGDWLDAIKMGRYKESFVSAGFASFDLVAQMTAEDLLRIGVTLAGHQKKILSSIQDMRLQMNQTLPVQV
The following applies: kinase EPHB3; 1 µmol/L single concentration; read-out: %-inhibition at 1 µmol/L, EPHB3.

In assay [4] the target is panel of 255 wild-type kinases (Homo sapiens, UniProt Q15375). The following applies: kinase EPHA7; 1 µmol/L single concentration; read-out: %-inhibition at 1 µmol/L, EPHA7.
In assay [5] the target is panel of 255 wild-type kinases (Homo sapiens, UniProt Q9H4B4). The following applies: kinase PLK3; 1 µmol/L single concentration; read-out: %-inhibition at 1 µmol/L, PLK3.
Assay [6] has as its target T3, panel of 255 wild-type kinases (Homo sapiens, UniProt Q9UQB9).
T3 sequence (Q9UQB9 1-309): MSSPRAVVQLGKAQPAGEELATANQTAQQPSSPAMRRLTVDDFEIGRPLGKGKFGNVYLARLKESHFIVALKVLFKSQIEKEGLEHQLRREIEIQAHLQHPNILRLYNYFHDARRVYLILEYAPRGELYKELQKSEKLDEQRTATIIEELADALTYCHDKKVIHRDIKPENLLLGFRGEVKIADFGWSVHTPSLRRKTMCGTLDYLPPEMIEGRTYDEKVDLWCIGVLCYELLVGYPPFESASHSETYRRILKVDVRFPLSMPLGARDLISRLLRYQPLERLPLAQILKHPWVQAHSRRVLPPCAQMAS
The following applies: AurC kinase assay; 1 µmol/L single concentration; read-out: %-inhibition AurC.

[7] abbreviates: CDK7/CycH/MAT1 kinase assay, 1 µmol/L single concentration.

For the molecule `Cc1nc(NC(=O)N2CCC[C@H]2C(N)=O)sc1-c1ccnc(C(C)(C)C(F)(F)F)c1` [alpelisib], the inhibition at 1 µM is -2.46% in assay [1]; -4% in assay [2] (setting [7]); -0.582% in assay [3]; -1.3% in assay [4]; 1.89% in assay [5]; 4.51% in assay [6].

In the case of `FC(F)(F)c1ccc(CNc2ccc(Cc3c[nH]c4ncc(Cl)cc34)cn2)cn1` [pexidartinib], the inhibition at 1 µM in assay [1] was -12%; in assay [2] (setting [7]) it was 22%; in assay [3] it was -7%; in assay [4], 6.38%; in assay [5], 12%; in assay [6] it was 68%.

For `CCc1nc(C(N)=O)c(Nc2ccc(N3CCC(N4CCN(C)CC4)CC3)c(OC)c2)nc1NC1CCOCC1` [gilteritinib], the inhibition at 1 µM in assay [1] was found to be 53%; in assay [2] it was 31%; in assay [3], 8%; in assay [4], 79%; in assay [5], 2.59%; in assay [6], 41%.

`O=C(Nc1cnn2ccc(N3CCC[C@@H]3c3cc(F)ccc3F)nc12)N1CC[C@H](O)C1` [larotrectinib]: the inhibition at 1 µM in assay [1] was 8%; in assay [2] (setting [7]), -8%; in assay [3] it was -0.506%; in assay [4], -0.152%; in assay [5], -0.714%; in assay [6] it was -0.0475%.

Source of the values: PMC9516332 (Frontiers in Oncology, 2022).
